Drawing on ChEMBL document CHEMBL1155809, “Design, synthesis, and antihepatocellular carcinoma activity of nitric oxide releasing derivatives of oleanolic acid” (J Med Chem, 2008), this text covers Activity for two compounds.

Series [1] concerns HepG2. The experiment in a line: Cytotoxicity against human HepG2 cells assessed as levels of nitric oxide production at 100 uM after 30 to 300 mins by colorimetric assay. In kind it is functional, cell-based.
The subject of series [2] is HeLa. Put plainly: Cytotoxicity against human HeLa cells assessed as cell death by lactate dehydrogenase release assay. Format: functional, cell-based.
Series [3] relates to HeLa. Put plainly: Cytotoxicity against human HeLa cells assessed as levels of nitric oxide production at 100 uM after 30 to 300 mins by colorimetric assay. Format: functional, cell-based.
The next series deals with Hep 3B2. The experiment in a line: Cytotoxicity against human Hep3B cells assessed as levels of nitric oxide production at 100 uM after 30 to 300 mins by colorimetric assay. In kind it is functional, cell-based.
In series [4] the test system is HepG2. The experiment in a line: Cytotoxicity against human HepG2 cells assessed as cell death at 0.01 uM after 24 hrs by lactate dehydrogenase release assay. Format: functional.
Series [5] in a line: Cytotoxicity against human Hep3B cells assessed as cell death at 1 uM after 24 hrs by lactate dehydrogenase release assay. Format: functional, Hep 3B2.
Series [6] concerns HEK293. Put plainly: Cytotoxicity against human HEK293 cells assessed as levels of nitric oxide production at 100 uM after 30 to 300 mins by colorimetric assay. Format: functional, cell-based.
Series [7] concerns PC-3. The experiment in a line: Cytotoxicity against human PC3 cells assessed as cell death by lactate dehydrogenase release assay. In kind it is functional, cell-based.
Series [8] is described as follows: Cytotoxicity against human Hep3B cells assessed as cell death at 0.001 uM after 24 hrs by lactate dehydrogenase release assay. In kind it is functional, Hep 3B2.
Series [9] has as its system HEK293. The experiment in a line: Cytotoxicity against HEK293 cells assessed as cell death by lactate dehydrogenase release assay. In kind it is functional, cell-based. The note with it: Homo sapiens.
Series [10] relates to HepG2. Put plainly: Cytotoxicity against human HepG2 cells assessed as cell death at 0.001 uM after 24 hrs by lactate dehydrogenase release assay. Format: functional.
In series [11] the test system is MCF7. The experiment in a line: Cytotoxicity against human MCF7 cells assessed as levels of nitric oxide production at 100 uM after 30 to 300 mins by colorimetric assay. Format: functional, cell-based.
In series [12] the test system is HepG2. Put plainly: Cytotoxicity against human HepG2 cells assessed as cell death at 0.1 uM after 24 hrs by lactate dehydrogenase release assay. In kind it is functional.
For series [13], the system named is PC-3. The experiment in a line: Cytotoxicity against human PC3 cells assessed as levels of nitric oxide production at 100 uM after 30 to 300 mins by colorimetric assay. Format: functional, cell-based.
Series [14] has as its system HepG2. Put plainly: Cytotoxicity against human HepG2 cells assessed as cell death at 1 uM after 24 hrs by lactate dehydrogenase release assay. In kind it is functional.
Series [15] can be described thus: Antitumor activity against human Hep3B cells xenografted in non-obese diabetic SCID mouse assessed as reduction in tumor size at 15 mg/kg, ip after 35 days. Format: functional, Hep 3B2. The conditions noted are these: route intraperitoneal.
In series [16] the test system is MCF7. Put plainly: Cytotoxicity against human MCF7 cells assessed as cell death by lactate dehydrogenase release assay. Format: functional, cell-based.
Series [17] in a line: Cytotoxicity against human Hep3B cells assessed as cell death at 0.01 uM after 24 hrs by lactate dehydrogenase release assay. Format: functional, Hep 3B2.
Series [18] is described as follows: Cytotoxicity against human Hep3B cells assessed as cell death at 0.1 uM after 24 hrs by lactate dehydrogenase release assay. Format: functional, Hep 3B2.
For another series, the system named is Mus musculus. The experiment in a line: Toxicity in BALB/c mouse at 15 to 100 mg/kg, ip daily for 3 days assessed after 15 days. The conditions noted are these: in vivo, 360 h. Format: organism-based. On the set-up: dose 15-100 mg/kg, route intraperitoneal.
Series [19] can be described thus: Antitumor activity against human Hep3B cells xenografted in non-obese diabetic SCID mouse assessed as reduction in tumor weight at 15 mg/kg, ip after 35 days. In kind it is functional, Hep 3B2. The conditions noted are these: route intraperitoneal.

The source made the active and inactive calls. The calls are words filed in the database; no cut-off is given here.

`CC1(C)CC[C@]2(C(=O)O)CC[C@]3(C)C(=CC[C@@H]4[C@@]5(C)CC[C@H](O)C(C)(C)[C@@H]5CC[C@]43C)[C@@H]2C1` [OLEANOLIC_ACID]: the result in the series with HepG2 [1] and with Hep 3B2 was Active. The result in the series with HeLa [2], in the series with HeLa [3], with HEK293 [6], in the series on PC-3 [7], with HEK293 [9] and in the series with MCF7 [11] was inactive. Besides, the result with PC-3 [13] and in the series on MCF7 [16] was inactive. Further, the Activity (in the series on HepG2 [4]; in series [5]; in [8]; in the series on HepG2 [10]; in the series with HepG2 [12]; with HepG2 [14]) was 0% throughout. In addition, the Activity in [15] was 668 mm3; in [17] it was 0%; in series [18] it was 0%; in the series with Mus musculus it was “Non-toxic”; in series [19], 0.961 g.
Regarding `CC(CCOc1no[n+]([O-])c1S(=O)(=O)c1ccccc1)OC(=O)[C@]12CCC(C)(C)C[C@H]1C1=CC[C@@H]3[C@@]4(C)CC[C@H](O)C(C)(C)[C@@H]4CC[C@@]3(C)[C@]1(C)CC2` (some centres not stated), the outcome in the series with HepG2 [1] and in the series with Hep 3B2 was Active. Moreover, the result in the series on HeLa [2], in the series with HeLa [3], in the series on HEK293 [6], with PC-3 [7], in the series with HEK293 [9] and in the series with MCF7 [11] was inactive. For the same compound, the result in the series on PC-3 [13] and in the series with MCF7 [16] was inactive. Further, the Activity was determined as 6.67% with HepG2 [4]; 92.18% in series [5]; 0% in series [8]; 0% in the series with HepG2 [10]; 55.11% with HepG2 [12]; 89.21% with HepG2 [14]. Moreover, the Activity in series [15] is reported as 289 mm3; in [17], 11.05%; in [18] it was 63.51%; in the series with Mus musculus, “Non-toxic”; in series [19], 0.332 g.
